Read-outs that look alike come from different tables or passages of the source.
Experiments:
Assay type in all cases: in vivo, human
boys with DMD [1] = experiment: VBP15-004 efficacy at Week 48; settings: for 6MWT, change from baseline / NSAA, change from baseline / TTRW velocity, change from baseline / TTSTAND velocity, change from baseline: 6 mg/kg/day
Experimental: Subjects already on vamorolone continued on the allocated dose level. Efficacy at Week 48 was assessed by Time to Stand ([…]) velocity, 6-Minute Walk Test (6MWT), Time to Run/Walk 10 meters (TTRW) velocity, and North Star Ambulatory Assessment (NSAA). […] In contrast, the persistence of effects with vamorolone 2 mg/kg/day was less pronounced for some parameters. The safety profile was consistent for subjects who continued on the same dose of vamorolone throughout the study, with no increase in frequency or severity of adverse events being observed over time. […] In addition, vamorolone treatment at both doses reversed the growth impairment seen during prednisone treatment and was associated with fewer adverse events, including those associated with corticosteroid use.

[2] = VBP15-002 Phase IIa multiple ascending dose PK and safety
Experimental: (§1) Vamorolone clinical studies have been conducted in adult male volunteers and boys with DMD, a disorder in which skeletal muscle is in a chronic inflammatory state. Two consecutive open-label dose-ranging studies in 48 DMD patients aged 4 to <7 years (corticosteroid-naïve) were conducted (Phase IIa, VBP15-002; Phase IIa, VBP15-003). Doses were tested over a 24-fold dose range (0.25, 0.75, 2.0, and 6.0 mg/kg/day), with 12 participants per group. The first multiple ascending dose (MAD) cohort trial-tested pharmacokinetics (PK) and safety for 2 weeks of drug dosing followed by a 2-week washout (VBP15-002). […] All DMD participants completed the MAD study and then continued on the same dose for a 24-week dose-finding (efficacy and safety) extension study (VBP15-003).
Three consecutive clinical trials of vamorolone treatment of DMD were conducted by CINRG (VBP15-002 [NCT02760264]; VBP15-003 [NCT02760277]; VBP15-LTE [NCT03038399]). A total of 48 participants (ages 4 to <7 years) were initially enrolled into VBP15-002, with trial participants completing month 12 of the 24-month VBP15-LTE study.
VBP15-002 (Phase IIa; two weeks on the drug, two weeks off drug) enrolled 48 corticosteroid-naïve participants with DMD, and all 48 participants completed the study and enrolled into VBP15-003 (Phase IIa extension; 24-week treatment). […]

boys with DMD [3] = experiment: VBP15-LTE month 24 PODCI and wrist x-ray bone age
From the text: In addition, 39/41 LTE participants had wrist x-ray at Month 24; the mean bone age to chronologic age difference was −1.1 (p<0.001, CI −1.5, −0.7), indicating possible skeletal maturation delay (Table 7).
PODCI is the Pediatrics Outcomes Data Collection Instrument (musculoskeletal disorders). The PODCI is a disease-specific questionnaire developed by the American Academy of Orthopedic Surgeons to measure general health and problems related to bone and muscle conditions in children. A significant increase in mean PODCI upper extremity and physical function standardized score was observed from LTE baseline to Month 24 (7.95±12.54, CI 1.003, 14.897, p=0.0278, n=15) for the combined 2.0 and 6.0 mg/kg/day initial dose group. At the same time, a non-significant decrease in mean PODCI transfer and basic mobility standardized score was observed (−4.38±22.68, CI −16.471, 7.703, p=0.451, n=16) (Table 7).

[4] = VBP15-004 height and BMI z-scores, 24 to 48 weeks; settings: for change in height Z scores: baseline to Week 24
Experimental: The second period of 24 weeks, where all participants receive vamorolone treatment on either of the two dose levels, will continue to capture additional longer-term safety and tolerability data.
Subjects already on vamorolone continued on the allocated dose level. Efficacy at Week 48 was assessed by Time to Stand (TTSTAND) velocity, 6-Minute Walk Test (6MWT), Time to Run/Walk 10 meters (TTRW) velocity, and North Star Ambulatory Assessment (NSAA). […] In contrast, the persistence of effects with vamorolone 2 mg/kg/day was less pronounced for some parameters. The safety profile was consistent for subjects who continued on the same dose of vamorolone throughout the study, with no increase in frequency or severity of adverse events being observed over time. […] In addition, vamorolone treatment at both doses reversed the growth impairment seen during prednisone treatment and was associated with fewer adverse events, including those associated with corticosteroid use.

[5] = VBP15-003 24-week dose-finding extension, safety
Experimental: as §1
VBP15-002 (Phase IIa; two weeks on the drug, two weeks off drug) enrolled 48 corticosteroid-naïve participants with DMD, and all 48 participants completed the study and enrolled into VBP15-003 (Phase IIa extension; 24-week treatment). Forty-six of 48 participants completed the VBP15-003 study (2 participants withdrew from VBP15-003 for reasons unrelated to the study drug). In addition, all participants (46/46) opted to enroll in the 24-month long-term extension study, VBP15-LTE.
Only participants completing VBP15-002 and VBP15-003 were eligible to enroll in VBP15-LTE. Participants received vamorolone at 1 of 4 dose levels (0.25, 0.75, 2.0, or 6.0 mg/kg/day) and at the same dose level in both the 4-week VBP15-002 trial and the 24-week VBP15-003 trial. If participants, their families, and their physicians wished to continue vamorolone treatment upon exiting the VBP15-003 trial, they were offered participation in the 24-month long-term extension (VBP15-LTE). The last visit of the VBP15-003 trial was commensurate with the first visit of the VBP15-LTE trial. In all studies, study medication was provided as 4% flavored liquid suspension and was dosed according to body weight and given once daily in the morning with food.
Study visits took place quarterly, including assessment of clinical laboratory results, vital signs, and AEs. All AEs were coded using the Medical Dictionary for Regulatory Activities (MedDRA version 19.0) system for reporting (preferred term and system organ class). Clinical efficacy assessments were performed at baseline of the VBP15-002 study, at six months (end of VBP15-003 study), and the 12-month midpoint visit of the VBP15-LTE study.

[6] = Treatment Period 2 after switch from prednisone to vamorolone 6 mg/kg/day

Bone Age by wrist x-ray, mean (SD) (boys with DMD [3]): 6.8 (1.4), n = 39 yr
Bone Age difference to Chronologic Age, mean (SD) (boys with DMD [3]): −1.1 (1.2), yr
Bone Age difference to Chronologic Age, mean (SD) (boys with DMD [3]; listed as vamorolone): −1.1 yr
height (z-score), absolute value, Mean ([4]; PDN/VAM 6 mg, Week 48): −0.12
BMI mean z-score [4, 6]: 1.32
growth velocity ([4]; both vamorolone doses, 48 weeks): preserved
BMI mean z-score ([4]; continuing on 2 mg/kg/day, Week 24): 1.10
BMI mean z-score ([4]; continuing on 2 mg/kg/day, Week 48): 0.91
BMI mean z-score ([4]; continuing on 6 mg/kg/day, Week 24): 1.40
BMI mean z-score ([4]; continuing on 6 mg/kg/day, Week 48): 1.32
change in height Z scores ([4]; vamorolone 2.0 mg/kg/day): overall stable height change Z scores
change in height Z scores ([4]; vamorolone 6.0 mg/kg/day): increased growth rate
SMILES: C[C@@H]1C[C@H]2[C@@H]3CCC4=CC(=O)C=C[C@]4(C)C3=CC[C@]2(C)[C@@]1(O)C(=O)CO [Vamorolone, 17α,21-dihydroxy-16α-methylpregna-1,4,9(11)-triene-3,20-dione]
6MWT, change from baseline (boys with DMD [1]; Week 24): 37 meters
NSAA, change from baseline (boys with DMD [1]; Week 24): 3.4 points
TTRW velocity, change from baseline (boys with DMD [1]; Week 24): 0.29 m/s
TTSTAND velocity, change from baseline (boys with DMD [1]; Week 24): 0.052 rises/s
6MWT, change from baseline (boys with DMD [1]; Week 48): 48 meters
NSAA, change from baseline (boys with DMD [1]; Week 48): 3.5 points
TTRW velocity, change from baseline (boys with DMD [1]; Week 48): 0.23 m/s
TTSTAND velocity, change from baseline (boys with DMD [1]; Week 48): 0.045 rises/s
6MWT distance (boys with DMD [1]; [6]): 408 meters
NSAA (boys with DMD [1]; [6]): 26.2 points
TTRW velocity (boys with DMD [1]; [6]): 2.20 m/s
TTSTAND velocity (boys with DMD [1]; [6]): 0.27 rises/s
dose-limiting toxicities ([2]; 2 weeks dosing, 0.25-6.0 mg/kg/day): no dose-limiting toxicities
drug accumulation ([2]; day 1 vs day 14): no drug accumulation
TEAE abnormal behavior, participants ([5]; 2.0-mg/kg/day group): one participant
TEAE Cushingoid habitus, participants ([5]; 6.0-mg/kg/day group): one participant each
TEAE abnormal blood cortisol level, participants ([5]; 6.0-mg/kg/day group): one participant each
TEAE anxiety, participants ([5]; 6.0-mg/kg/day group): one participant each
TEAE hypertrichosis, participants ([5]; 6.0-mg/kg/day group): two participants
TEAE personality change, participants ([5]; 6.0-mg/kg/day group): one participant each
safety and tolerability ([5]; oral, all doses tested, 24 weeks): safe and well-tolerated
